From patent US11076595B2, “1-(n,n-disubstituted carbamoyl) 4-(substituted sulfonyl)triazolin-5-one derivative, 4-(n,n-disubstituted carbamoyl) 1-(substituted sulfonyl)triazolin-5-one derivative, and herbicide containing said derivative as active ingredient” (HOKKO CHEMICAL INDUSTRY CO., LTD., priority 2017, dated 2021)

Assays:
Assay type in all cases: in vivo
[1] = test system: Echinochloa crus-galli; test: Test Example 11: herbicidal effect test by soil treatment in paddy field; details: 120 g/10a active ingredient, 14 days after treatment
Text: (§1) A Wagner pot having an area of 1/10000 are was filled with paddy field soil and after adding water, a chemical fertilizer (N:P:K=17:17:17) was mixed, followed by puddling. Thereafter, 30 grains of each of Echinochloa crus-galli, broad-leaved weed (Lindernia pyxidaria, Monochoria vaginalis) and Scirpus juncoides seeds were sown to a depth of 0 to 1 cm. Immediately after the sowing, the pot was flooded, and the depth of water was kept at about 3 cm. The pot was subsequently managed in a glass greenhouse. Just after that, an emulsifiable concentrate prepared according to Formulation Example 15 by using the compound shown in Table 9 below was diluted with water, and a predetermined amount of the water-diluted formulation was added dropwise. The application rate of the active ingredient, by conversion, corresponded to 120 g per 10 are.
(§2) This test was performed with two replications per one formulation concentration plot, and 14 days after the formulation treatments, the weed suppression rate (%) was determined according to the following equation (Math. 2). Weed suppression rate (%)=(1−average dry weight (g) of plants in treated plots/average dry weight (g) of plants in untreated plots)×100 [Math. 2]

[2] = test system: Lindernia pyxidaria; test: as above; details: 120 g/10a active ingredient, 14 days after treatment
Text: as §1, §2

[3] = test system: Monochoria vaginalis; test: as above; details: 120 g/10a active ingredient, 14 days after treatment
Text: as §1, §2

[4] = test system: Scirpus juncoides; test: as above; details: 120 g/10a active ingredient, 14 days after treatment
Text: as §1, §2

[5] = test system: Echinochloa crus-galli; test: Test Example 12: herbicidal effect test by treatment during growing period in paddy field; details: 120 g/10a; treatment seven days after sowing in flooded paddy pot; assessed 14 days after treatment
Protocol: as §2
as §1, with “Seven Days” for “Just”, “sowing,” for “that,”, “10” for “9”, “are. The test was performed with two replications per one formulation concentration plot, and 14 days after the formulation treatments, the weed suppression rate (%) was determined according to the equation (Math. 2).” for “are.”

[6] = test system: Lindernia pyxidaria; test: as above; details: 120 g/10a; treatment seven days after sowing in flooded paddy pot; assessed 14 days after treatment
Protocol: as §2
as §1, with “Seven Days” for “Just”, “sowing,” for “that,”, “10” for “9”, “are. The test was performed with two replications per one formulation concentration plot, and 14 days after the formulation treatments, the weed suppression rate (%) was determined according to the equation (Math. 2).” for “are.”

[7] = test system: Monochoria vaginalis; test: as above; details: 120 g/10a; treatment seven days after sowing in flooded paddy pot; assessed 14 days after treatment
Protocol: as §2
as §1, with “Seven Days” for “Just”, “sowing,” for “that,”, “10” for “9”, “are. The test was performed with two replications per one formulation concentration plot, and 14 days after the formulation treatments, the weed suppression rate (%) was determined according to the equation (Math. 2).” for “are.”

[8] = test system: Scirpus juncoides; test: as above; details: 120 g/10a; treatment seven days after sowing in flooded paddy pot; assessed 14 days after treatment
Protocol: as §2
as §1, with “Seven Days” for “Just”, “sowing,” for “that,”, “10” for “9”, “are. The test was performed with two replications per one formulation concentration plot, and 14 days after the formulation treatments, the weed suppression rate (%) was determined according to the equation (Math. 2).” for “are.”

With `CC(C)N(C(=O)n1cnn(S(=O)(=O)c2ccccc2F)c1=O)c1ccc(C(F)(F)F)cc1F` [Compound 11-419] the “Weed suppression rate (%) Echinochloa crus-galli” value [1] was 100%, the “Weed suppression rate (%) Lindemia pyxidaria” value [2] was 100% and the “Weed suppression rate (%) Monochoria vaginalis” value [3] was 60%. For the same molecule, the “Weed suppression rate (%) Scirpus juncoides” value [4] was 70%, the “Weed suppression rate (%) Echinochloa crus-galli” value [5] was 90% and the “Weed suppression rate (%) Lindemia pyxidaria” value [6] was 60%. For the same molecule, the “Weed suppression rate (%) Monochoria vaginalis” value [7] was 80% and the “Weed suppression rate (%) Scirpus juncoides” value [8] was 60%.

For `CC(C)N(C(=O)n1cnn(S(=O)(=O)c2cccc(F)c2)c1=O)c1ccccc1F` [Compound 11-428], the “Weed suppression rate (%) Echinochloa crus-galli” value [1] was 90%, the “Weed suppression rate (%) Lindemia pyxidaria” value [2] was 90% and the “Weed suppression rate (%) Monochoria vaginalis” value [3] was 90%. For the same molecule, the “Weed suppression rate (%) Scirpus juncoides” value [4] was 90%, the “Weed suppression rate (%) Echinochloa crus-galli” value [5] was 90% and the “Weed suppression rate (%) Lindemia pyxidaria” value [6] was 90%. The “Weed suppression rate (%) Monochoria vaginalis” value [7] was 90% and the “Weed suppression rate (%) Scirpus juncoides” value [8] was 90%.

`CC(C)N(C(=O)n1cnn(S(=O)(=O)c2cccc(F)c2)c1=O)c1cccc(F)c1F` [Compound 11-437] was tested, and the “Weed suppression rate (%) Echinochloa crus-galli” value [1] was 100%, the “Weed suppression rate (%) Lindemia pyxidaria” value [2] was 80% and the “Weed suppression rate (%) Monochoria vaginalis” value [3] was 80%. The “Weed suppression rate (%) Scirpus juncoides” value [4] was 80%, the “Weed suppression rate (%) Echinochloa crus-galli” value [5] was 100% and the “Weed suppression rate (%) Lindemia pyxidaria” value [6] was 100%. For the same molecule, the “Weed suppression rate (%) Monochoria vaginalis” value [7] was 100% and the “Weed suppression rate (%) Scirpus juncoides” value [8] was 100%.

In the case of `CC(C)N(C(=O)n1cnn(S(=O)(=O)c2cccc(F)c2)c1=O)c1ccc(F)c(F)c1F` [Compound 11-441], the “Weed suppression rate (%) Echinochloa crus-galli” value [1] was 100%, the “Weed suppression rate (%) Lindemia pyxidaria” value [2] was 90% and the “Weed suppression rate (%) Monochoria vaginalis” value [3] was 60%. The “Weed suppression rate (%) Scirpus juncoides” value [4] was 100%, the “Weed suppression rate (%) Echinochloa crus-galli” value [5] was 100% and the “Weed suppression rate (%) Lindemia pyxidaria” value [6] was 60%. The “Weed suppression rate (%) Monochoria vaginalis” value [7] was 80% and the “Weed suppression rate (%) Scirpus juncoides” value [8] was 100%.

With `CC(C)N(C(=O)n1cnn(S(=O)(=O)c2cccc(F)c2)c1=O)c1c(F)cc(F)cc1F` [Compound 11-442] the “Weed suppression rate (%) Echinochloa crus-galli” value [1] was 100%, the “Weed suppression rate (%) Lindemia pyxidaria” value [2] was 80% and the “Weed suppression rate (%) Monochoria vaginalis” value [3] was 70%. The “Weed suppression rate (%) Scirpus juncoides” value [4] was 80%, the “Weed suppression rate (%) Echinochloa crus-galli” value [5] was 100% and the “Weed suppression rate (%) Lindemia pyxidaria” value [6] was 80%. For the same molecule, the “Weed suppression rate (%) Monochoria vaginalis” value [7] was 90% and the “Weed suppression rate (%) Scirpus juncoides” value [8] was 80%.

With `CC(C)N(C(=O)n1cnn(S(=O)(=O)c2cccc(F)c2)c1=O)c1c(F)c(F)cc(F)c1F` [Compound 11-443] the “Weed suppression rate (%) Echinochloa crus-galli” value [1] was 80%, the “Weed suppression rate (%) Lindemia pyxidaria” value [2] was 70% and the “Weed suppression rate (%) Monochoria vaginalis” value [3] was 70%. The “Weed suppression rate (%) Scirpus juncoides” value [4] was 100%, the “Weed suppression rate (%) Echinochloa crus-galli” value [5] was 70% and the “Weed suppression rate (%) Lindemia pyxidaria” value [6] was 70%. The “Weed suppression rate (%) Monochoria vaginalis” value [7] was 70% and the “Weed suppression rate (%) Scirpus juncoides” value [8] was 100%.

In the case of `CC(C)N(C(=O)n1cnn(S(=O)(=O)c2ccc(F)cc2)c1=O)c1ccccc1F` [Compound 11-465], the “Weed suppression rate (%) Echinochloa crus-galli” value [1] was 90%, the “Weed suppression rate (%) Lindemia pyxidaria” value [2] was 80% and the “Weed suppression rate (%) Monochoria vaginalis” value [3] was 80%. The “Weed suppression rate (%) Scirpus juncoides” value [4] was 90%, the “Weed suppression rate (%) Echinochloa crus-galli” value [5] was 90% and the “Weed suppression rate (%) Lindemia pyxidaria” value [6] was 80%. The “Weed suppression rate (%) Monochoria vaginalis” value [7] was 80% and the “Weed suppression rate (%) Scirpus juncoides” value [8] was 90%.

For `CC(C)N(C(=O)n1cnn(S(=O)(=O)c2ccc(F)cc2)c1=O)c1cccc(F)c1F` [Compound 11-474], the “Weed suppression rate (%) Echinochloa crus-galli” value [1] was 100%, the “Weed suppression rate (%) Lindemia pyxidaria” value [2] was 100% and the “Weed suppression rate (%) Monochoria vaginalis” value [3] was 100%. For the same molecule, the “Weed suppression rate (%) Scirpus juncoides” value [4] was 100%, the “Weed suppression rate (%) Echinochloa crus-galli” value [5] was 100% and the “Weed suppression rate (%) Lindemia pyxidaria” value [6] was 100%. The “Weed suppression rate (%) Monochoria vaginalis” value [7] was 90% and the “Weed suppression rate (%) Scirpus juncoides” value [8] was 100%.

`CC(C)N(C(=O)n1cnn(S(=O)(=O)c2ccc(F)cc2)c1=O)c1ccc(F)c(F)c1F` [Compound 11-478] was tested, and the “Weed suppression rate (%) Echinochloa crus-galli” value [1] was 100%, the “Weed suppression rate (%) Lindemia pyxidaria” value [2] was 100% and the “Weed suppression rate (%) Monochoria vaginalis” value [3] was 100%. The “Weed suppression rate (%) Scirpus juncoides” value [4] was 100%, the “Weed suppression rate (%) Echinochloa crus-galli” value [5] was 100% and the “Weed suppression rate (%) Lindemia pyxidaria” value [6] was 70%. The “Weed suppression rate (%) Monochoria vaginalis” value [7] was 90% and the “Weed suppression rate (%) Scirpus juncoides” value [8] was 100%.
